Measurements: the NIST ThermoML archive (doi:10.1021/acs.jced.8b00578)
Numbers after ± are expanded uncertainties.

Assays:
[1] = Molar enthalpy of transition or fusion; conditions: Crystal; DSC
[2] = Crystal; DSC

With `O=C(O)c1cc2ccccc2cc1O` [3-hydroxy-2-naphthoic acid] as the compound, how does the “Molar enthalpy of transition or fusion” value [1] read?
Its value is 27.7 ± 1.3 kJ/mol.

What about the Triple point temperature [2] of the same compound?
The Triple point temperature was 494.4 ± 0.81 K.
